Some test systems named below: SNB-19 CNS; PC-3 prostate; HOP-62 NSCLC; NCI-H460 lung; SK-MEL-2 melanoma; HL-60(TB) leukemia; OVCAR-8 ovarian; OVCAR-3 ovarian; NCI-H226 lung; HCT-116 colon; SNB-75 CNS; NCI/ADR-RES ovarian; OVCAR-4 ovarian.
What all share (test): DTP human tumour cell line panel, 48 h

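In this assay, cells in 96-well plates receive the compound at five concentrations for 48 hours. Endpoints are linearly interpolated between the surrounding concentrations. The concentration for full growth arrest is given as TGI.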 Some results are limits rather than exact numbers.

The term TGI denotes the concentration at which net growth stops. Read a low TGI as more potent growth arrest. `CC(C)(C)n1c(=O)n2n(c1=O)C1c3cccc4cccc(c34)C2C2c3cccc4cccc(c34)C1n1c(=O)n(C(C)(C)C)c(=O)n12`: the TGI in the assay with SNB-19 CNS, with PC-3 prostate, with HOP-62 NSCLC, in the assay on NCI-H460 lung, with SK-MEL-2 melanoma and in the assay on HL-60(TB) leukemia was above 100 µM in each case. Besides, the TGI with OVCAR-8 ovarian was above 100 µM; in the assay with OVCAR-3 ovarian, 60 µM; with NCI-H226 lung, above 100 µM; in the assay on HCT-116 colon, above 100 µM; in the assay on SNB-75 CNS, above 100 µM; in the assay with NCI/ADR-RES ovarian, above 100 µM.

With `O=C(O)C12CCC(CC1=O)C2` (centres undefined), the TGI in the assay on SNB-19 CNS, with PC-3 prostate, in the assay with HOP-62 NSCLC, in the assay on NCI-H460 lung, in the assay with SK-MEL-2 melanoma and in the assay with OVCAR-4 ovarian was above 100 µM in each case. Also, the TGI with HL-60(TB) leukemia, in the assay on OVCAR-8 ovarian, in the assay on OVCAR-3 ovarian, with NCI-H226 lung, in the assay with SNB-75 CNS and with NCI/ADR-RES ovarian was above 100 µM throughout.

Take `O=C1CC2CC(CC3(CO3)C2)C1F` (centres undefined): the TGI in the assay on SNB-19 CNS, in the assay with PC-3 prostate, with HOP-62 NSCLC, with NCI-H460 lung, in the assay with SK-MEL-2 melanoma and in the assay on OVCAR-4 ovarian was above 100 µM throughout. For the same compound, the TGI in the assay on HL-60(TB) leukemia, with OVCAR-8 ovarian, in the assay with NCI-H226 lung, in the assay with HCT-116 colon, with SNB-75 CNS and with NCI/ADR-RES ovarian was above 100 µM each time.

With `CN(C)CC1CCC/C(=C\c2ccccc2)C1=O` (centres undefined), the TGI with SNB-19 CNS worked out at 30.5 µM; in the assay on PC-3 prostate, 21 µM; in the assay with HOP-62 NSCLC, 34.2 µM; with NCI-H460 lung it was 16.9 µM; in the assay with SK-MEL-2 melanoma it was 18.9 µM; with OVCAR-4 ovarian, 3.17 µM. Moreover, the TGI in the assay with HL-60(TB) leukemia was above 100 µM; in the assay with OVCAR-8 ovarian it was 14.7 µM; in the assay with OVCAR-3 ovarian it was 3.75 µM; in the assay with NCI-H226 lung, 8.26 µM; in the assay on HCT-116 colon it was 2.91 µM; in the assay on SNB-75 CNS, 26.7 µM. For the same compound, the TGI in the assay with NCI/ADR-RES ovarian was 41.6 µM.

As to `Nc1cc(Cl)ccc1SSc1ccc(Cl)cc1N`, the TGI is above 100 µM in the assay with SNB-19 CNS; 48.4 µM in the assay with PC-3 prostate; 29.4 µM with HOP-62 NSCLC; 31.6 µM with NCI-H460 lung; 35 µM with SK-MEL-2 melanoma; 31.1 µM in the assay with OVCAR-4 ovarian. Moreover, the TGI in the assay with HL-60(TB) leukemia is above 100 µM; with OVCAR-8 ovarian, above 100 µM; in the assay with NCI-H226 lung, 15.4 µM; in the assay with HCT-116 colon it was 21.7 µM; in the assay on SNB-75 CNS it was 37.6 µM; with NCI/ADR-RES ovarian, 30.4 µM.

Consider `C=CC1(c2ccc3ccccc3c2)OCC(CC)O1` (centres undefined), for which the TGI in the assay on SNB-19 CNS was above 100 µM; in the assay on PC-3 prostate it was above 100 µM; with HOP-62 NSCLC, 2.48 µM; in the assay with NCI-H460 lung, above 100 µM; in the assay with SK-MEL-2 melanoma, 43.9 µM; in the assay on OVCAR-4 ovarian it was above 100 µM. The TGI with HL-60(TB) leukemia was 23.3 µM; with OVCAR-8 ovarian, above 100 µM; in the assay with OVCAR-3 ovarian, above 100 µM; in the assay with NCI-H226 lung it was 81.4 µM; in the assay with HCT-116 colon it was above 100 µM; in the assay with SNB-75 CNS, above 100 µM. The same compound displayed a TGI in the assay on NCI/ADR-RES ovarian above 100 µM.

On to `COc1cc(C2OC[C@@H]3C(=O)OC[C@H]23)cc(O)c1OC` (some centres undefined), for which the TGI in the assay with SNB-19 CNS, in the assay on PC-3 prostate, in the assay on NCI-H460 lung, in the assay with SK-MEL-2 melanoma, with OVCAR-4 ovarian and in the assay on HL-60(TB) leukemia was above 100 µM throughout. In addition, the TGI in the assay on OVCAR-8 ovarian, in the assay on OVCAR-3 ovarian, in the assay with NCI-H226 lung, with HCT-116 colon, in the assay with SNB-75 CNS and in the assay on NCI/ADR-RES ovarian was above 100 µM throughout.

For `O=C1/C(=C/c2ccc(O)c(O)c2)CC/C1=C\c1ccc(O)c(O)c1`, the TGI in the assay on SNB-19 CNS is 66.4 µM; in the assay on PC-3 prostate, above 100 µM; with HOP-62 NSCLC, 39 µM; with NCI-H460 lung, above 100 µM; in the assay on SK-MEL-2 melanoma, above 72.7 µM; in the assay on OVCAR-4 ovarian it was above 57.5 µM. The TGI is above 46.2 µM in the assay on HL-60(TB) leukemia; above 87.2 µM in the assay with OVCAR-8 ovarian; 32 µM in the assay with OVCAR-3 ovarian; 25.8 µM in the assay with NCI-H226 lung; above 47.8 µM in the assay with HCT-116 colon; above 80.1 µM in the assay on SNB-75 CNS. This compound also returned a TGI in the assay with NCI/ADR-RES ovarian above 100 µM.

As for `C#CCOCn1cc(C)c(=O)[nH]c1=O`, the TGI with SNB-19 CNS, in the assay on PC-3 prostate, in the assay on HOP-62 NSCLC, with NCI-H460 lung, in the assay on SK-MEL-2 melanoma and in the assay on HL-60(TB) leukemia was above 100 µM throughout. For the same compound, the TGI with OVCAR-8 ovarian, in the assay with NCI-H226 lung, with HCT-116 colon, in the assay with SNB-75 CNS and with NCI/ADR-RES ovarian was above 100 µM throughout.

Take `Cc1cc(S(=O)(=O)NC(=NCCc2ccccc2)NN)c(S)cc1Cl`: the TGI in the assay with SNB-19 CNS was 36.7 µM; with PC-3 prostate, above 100 µM; in the assay on SK-MEL-2 melanoma, above 100 µM; in the assay on OVCAR-4 ovarian, above 100 µM; with HL-60(TB) leukemia it was above 100 µM; with OVCAR-8 ovarian, 35.2 µM. Also, the TGI with OVCAR-3 ovarian is 74.8 µM; in the assay with NCI-H226 lung it was 66.3 µM; in the assay with HCT-116 colon it was 71.1 µM; in the assay on SNB-75 CNS, 69.7 µM; with NCI/ADR-RES ovarian, 57.8 µM.

As for `CC(=O)NC1COC(COC(=O)CCCCCCCCCCNC(=O)c2ccc([N+](=O)[O-])c3c(=O)c4ccccc4[nH]c23)C(O)C1OC(C)C(=O)NC(C(=O)NC(CCC(N)=O)C(=O)OCc1ccccc1)C(C)C` (centres undefined), the TGI in the assay on SNB-19 CNS was determined as 18.5 µM; with PC-3 prostate, 26.4 µM; in the assay with HOP-62 NSCLC, 24.4 µM; in the assay with NCI-H460 lung it was 39.7 µM; in the assay on SK-MEL-2 melanoma, 28.7 µM; in the assay with OVCAR-4 ovarian, 30.3 µM. Further, the TGI in the assay on HL-60(TB) leukemia came to 6.72 µM; in the assay with OVCAR-8 ovarian, 44.1 µM; in the assay on OVCAR-3 ovarian, 9.57 µM; with NCI-H226 lung it was 85.5 µM; in the assay with HCT-116 colon, 42.7 µM; in the assay on SNB-75 CNS, 55.6 µM. In addition, the TGI with NCI/ADR-RES ovarian was above 94.5 µM.

(Values after PubChem BioAssay (NCI).)
